From US11136313B2, “Compounds, compositions, and methods for modulating CFTR” (Proteostasis Therapeutics, Inc., priority 2015, dated 2021)

The compounds below were run against T1, ΔF508-CFTR (Homo sapiens, UniProt P13569, DEL508-508) (assay: hBE equivalent current (Ieq) assay: AUC of equivalent chloride current after forskolin/VX-770 in primary lung epithelial cells homozygous for ΔF508). Details: relative to CFTR amplifier (Compound A)+VX-809 (3 uM), compound at 10 uM and Compound A at 3 uM, 24 h treatment.
T1 construct: Primary lung epithelial cells homozygous for the Cystic Fibrosis-causing ΔF508 mutation were differentiated for a minimum of 4 weeks; endogenous in cells; host or cells: primary lung epithelial cells (hBE) homozygous for ΔF508, differentiated at an air-liquid interface
T1 sequence (P13569 with tags, fused parts or gaps DEL508-508): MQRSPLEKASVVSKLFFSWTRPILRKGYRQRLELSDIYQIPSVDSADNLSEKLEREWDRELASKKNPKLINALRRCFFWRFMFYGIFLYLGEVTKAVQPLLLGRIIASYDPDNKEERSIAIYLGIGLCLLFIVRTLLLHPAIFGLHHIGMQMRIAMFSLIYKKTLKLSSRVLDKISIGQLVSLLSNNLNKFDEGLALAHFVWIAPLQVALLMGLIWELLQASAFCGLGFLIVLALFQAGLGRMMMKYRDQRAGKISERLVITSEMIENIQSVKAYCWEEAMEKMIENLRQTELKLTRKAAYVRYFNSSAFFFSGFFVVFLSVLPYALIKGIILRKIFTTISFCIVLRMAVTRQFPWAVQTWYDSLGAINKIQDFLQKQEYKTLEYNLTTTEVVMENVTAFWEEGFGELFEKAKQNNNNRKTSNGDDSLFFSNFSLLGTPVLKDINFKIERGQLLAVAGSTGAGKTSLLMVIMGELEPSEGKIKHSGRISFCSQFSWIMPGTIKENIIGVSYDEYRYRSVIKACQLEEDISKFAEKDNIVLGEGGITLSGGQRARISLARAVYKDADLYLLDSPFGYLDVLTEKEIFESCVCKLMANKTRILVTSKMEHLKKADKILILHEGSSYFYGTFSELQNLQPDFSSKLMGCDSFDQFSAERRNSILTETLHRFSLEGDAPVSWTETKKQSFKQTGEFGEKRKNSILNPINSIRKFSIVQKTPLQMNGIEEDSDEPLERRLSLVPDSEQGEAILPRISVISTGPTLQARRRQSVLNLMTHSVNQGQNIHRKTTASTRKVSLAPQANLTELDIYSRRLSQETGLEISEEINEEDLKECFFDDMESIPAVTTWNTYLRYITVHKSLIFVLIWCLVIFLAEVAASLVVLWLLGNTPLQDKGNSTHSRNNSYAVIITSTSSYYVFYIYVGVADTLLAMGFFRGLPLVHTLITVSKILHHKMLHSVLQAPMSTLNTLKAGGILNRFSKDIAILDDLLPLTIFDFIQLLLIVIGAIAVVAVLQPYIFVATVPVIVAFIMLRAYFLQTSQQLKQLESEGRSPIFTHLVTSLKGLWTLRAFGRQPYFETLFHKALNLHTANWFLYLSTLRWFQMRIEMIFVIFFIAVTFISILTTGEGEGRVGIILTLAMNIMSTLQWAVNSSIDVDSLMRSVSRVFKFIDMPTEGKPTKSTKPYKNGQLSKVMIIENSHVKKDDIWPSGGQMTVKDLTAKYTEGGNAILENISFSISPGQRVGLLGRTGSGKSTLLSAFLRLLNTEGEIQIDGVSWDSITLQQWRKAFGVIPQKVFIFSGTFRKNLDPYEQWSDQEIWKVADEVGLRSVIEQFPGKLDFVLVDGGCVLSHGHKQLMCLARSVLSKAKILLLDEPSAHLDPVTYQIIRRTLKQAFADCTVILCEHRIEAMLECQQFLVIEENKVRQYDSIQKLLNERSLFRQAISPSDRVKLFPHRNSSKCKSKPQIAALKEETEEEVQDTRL
Format: cell-based
Protocol: ii. hBE Equivalent Current (Ieq) Assay
Primary lung epithelial cells homozygous for the Cystic Fibrosis-causing ΔF508 mutation were differentiated for a minimum of 4 weeks in an air-liquid interface on Costar 24 well HTS filter plates prior to the equivalent current (Ieq) measurements. Cells were apically mucus-washed for 30 minutes 24 h prior to treatment with compounds. The basolateral media was removed and replaced with media containing the compound of interest diluted to its final concentration from DMSO stocks. Treated cells were incubated at 37° C. and 5% CO2 for 24 hours. At the end of the treatment period, the media was changed to the Ieq experimental solution for 2 hours before the experiment and plates are maintained in a CO2-free incubator during this period. The plates containing the cells were then placed in pre-warmed heating blocks at 36° C.±0.5 for 15 minutes before measurements are taken. The transepithelial voltage (VT) and conductance (GT) were measured using a custom 24 channel current clamp (TECC-24) with 24 well electrode manifold. The Ieq assay measurements were made following additions with standardized time periods: • 1. The baseline VT and GT values were measured for approximately 20 minutes. • 2. Benzamil was added to block ENaC for 15 minutes. • 3. Forskolin plus VX-770 were added to maximally activate ΔF508-CFTR for 27 minutes. • 4. Bumetanide was added to inhibit the NaK2Cl cotransporter and shut-off secretion of chloride.
The activity data captured was the area under the curve (AUC) for the traces of the equivalent chloride current. The AUC was collected from the time of the forskolin/VX-770 addition until the inhibition by bumetanide addition. Correction in response to compound treatment was scored as the increase in the AUC for compound-treated samples over that of vehicle-treated samples.
(+ indicates activity<50% of an CFTR amplifier (Compound A)+VX-809 (3 uM) with compound at 10 uM and Compound A at 3 uM; ++ indicates activity>50% of CFTR amplifier+VX-809 (3 uM) with compound at 10 uM and Compound A at 3 uM.
With `Cc1c(-c2cc(C(=O)O)c3cc(C4CC4)cc(C)c3n2)oc2ccccc12` [Compound 28, 6-Cyclopropyl-8-methyl-2-(3-methyl-1-benzofuran-2-yl)quinoline-4-carboxylic Acid] the Activity was “++ (activity>50% of CFTR amplifier+VX-809 (3 uM) with compound at 10 uM and Compound A at 3 uM)”.
For `Cc1cc(C)c2nc(-c3oc4ccccc4c3C)cc(CO)c2c1` [Compound 29, [6,8-Dimethyl-2-(3-methyl-1-benzofuran-2-yl)quinolin-4-yl]methanol], the Activity was “+ (activity<50% of an CFTR amplifier (Compound A)+VX-809 (3 uM) with compound at 10 uM and Compound A at 3 uM)”.
`Cc1c(-c2cc(C(=O)O)c3c(OCc4ccccc4)ccc(C)c3n2)oc2ccccc12` [Compound 30, 5-(benzyloxy)-8-methyl-2-(3-methyl-1-benzofuran-2-yl)quinoline-4-carboxylic acid] was tested, and the Activity was “++ (activity>50% of CFTR amplifier+VX-809 (3 uM) with compound at 10 uM and Compound A at 3 uM)”.
With `Cc1c(-c2cc(C(=O)O)c3c(C)ccc(C)c3n2)oc2ccccc12` [Compound 31, 5,8-Dimethyl-2-(3-methyl-1-benzofuran-2-yl)quinoline-4-carboxylic acid] the Activity was “++ (activity>50% of CFTR amplifier+VX-809 (3 uM) with compound at 10 uM and Compound A at 3 uM)”.
With `CCc1c(-c2cc(C(=O)O)c3c(C)ccc(C)c3n2)oc2ccccc12` [Compound 32, 2-(3-Ethyl-1-benzofuran-2-yl)-5,8-dimethylquinoline-4-carboxylic acid] the Activity was “++ (activity>50% of CFTR amplifier+VX-809 (3 uM) with compound at 10 uM and Compound A at 3 uM)”.
For `Cc1c(-c2cc(C(=O)O)c3c(OCc4ccccc4)ccc(C)c3n2)sc2ccccc12` [Compound 33, 5-(Benzyloxy)-8-methyl-2-(3-methyl-1-benzothiophen-2-yl)quinoline-4-carboxylic acid], the Activity was “++ (activity>50% of CFTR amplifier+VX-809 (3 uM) with compound at 10 uM and Compound A at 3 uM)”.
`Cc1ccc(OCc2ccccc2)c2c(C(=O)O)cc(-c3cc4ccccc4s3)nc12` [Compound 34, 2-(1-Benzothiophen-2-yl)-5-(benzyloxy)-8-methylquinoline-4-carboxylic acid] was tested, and the Activity was “++ (activity>50% of CFTR amplifier+VX-809 (3 uM) with compound at 10 uM and Compound A at 3 uM)”.
In the case of `Cc1oc2ccccc2c1-c1cc(C(=O)O)c2c(OCc3ccccc3)ccc(C)c2n1` [Compound 35, 5-(Benzyloxy)-8-methyl-2-(2-methyl-1-benzofuran-3-yl)quinoline-4-carboxylic acid], the Activity is reported as “++ (activity>50% of CFTR amplifier+VX-809 (3 uM) with compound at 10 uM and Compound A at 3 uM)”.
With `Cc1c(-c2cc(C(=O)O)c3cc(C(C)C)cc(C)c3n2)oc2ccccc12` [Compound 36] the Activity was “++ (activity>50% of CFTR amplifier+VX-809 (3 uM) with compound at 10 uM and Compound A at 3 uM)”.
For `Cc1c(-c2cc(C(=O)O)c3cc(-c4ccccc4)cc(C)c3n2)oc2ccccc12` [Compound 37], the Activity was “++ (activity>50% of CFTR amplifier+VX-809 (3 uM) with compound at 10 uM and Compound A at 3 uM)”.
For `Cc1ccc(C)c2c(C(=O)O)cc(-c3oc4ccccc4c3Cl)nc12` [Compound 38, 2-(3-Chloro-1-benzofuran-2-yl)-5,8-dimethylquinoline-4-carboxylic acid], the Activity was “+ (activity<50% of an CFTR amplifier (Compound A)+VX-809 (3 uM) with compound at 10 uM and Compound A at 3 uM)”.
In the case of `Cc1ccc(C)c2c(C(=O)O)cc(-c3oc4ccccc4c3Br)nc12` [Compound 39, 2-(3-Bromo-1-benzofuran-2-yl)-5,8-dimethylquinoline-4-carboxylic acid], the Activity is reported as “+ (activity<50% of an CFTR amplifier (Compound A)+VX-809 (3 uM) with compound at 10 uM and Compound A at 3 uM)”.
For `Cc1c(-c2cc(C(=O)O)c3c(C)ccc(OCc4ccccc4)c3n2)oc2ccccc12` [Compound 40, 8-(Benzyloxy)-5-methyl-2-(3-methyl-1-benzofuran-2-yl)quinoline-4-carboxylic acid], the Activity was “+ (activity<50% of an CFTR amplifier (Compound A)+VX-809 (3 uM) with compound at 10 uM and Compound A at 3 uM)”.
With `Cc1cc2c(C(=O)O)cc(-c3oc4ccccc4c3C)nc2cc1OCc1ccccc1` [Compound 41, 7-(Benzyloxy)-6-methyl-2-(3-methyl-1-benzofuran-2-yl)quinoline-4-carboxylic acid] the Activity was “+ (activity<50% of an CFTR amplifier (Compound A)+VX-809 (3 uM) with compound at 10 uM and Compound A at 3 uM)”.
`Cc1c(-c2cc(C(=O)O)c3c(OCCc4ccccc4)ccc(C)c3n2)oc2ccccc12` [Compound 73, 8-methyl-2-(3-methyl-1-benzofuran-2-yl)-5-(2-phenylethoxy)quinoline-4-carboxylic acid] was tested, and the Activity was “++ (activity>50% of CFTR amplifier+VX-809 (3 uM) with compound at 10 uM and Compound A at 3 uM)”.
In the case of `Cc1c(-c2cc(C(=O)O)c3c(OC4CC(c5ccccc5)C4)ccc(C)c3n2)oc2ccccc12` (stereo not drawn) [Compound 75, 8-Methyl-2-(3-methyl-1-benzofuran-2-yl)-5-(3-phenylcyclobutoxy)quinoline-4-carboxylic acid], the Activity is reported as “++ (activity>50% of CFTR amplifier+VX-809 (3 uM) with compound at 10 uM and Compound A at 3 uM)”.
In the case of `Cc1c(-c2cc(C(=O)O)c3c(O[C@H]4CC[C@H](c5ccccc5)CC4)ccc(C)c3n2)oc2ccccc12` [Compound 76, 8-Methyl-2-(3-methyl-1-benzofuran-2-yl)-5-[[(1r,4r)-4-phenylcyclohexyl]oxy]quinoline-4-carboxylic acid], the Activity is reported as “++ (activity>50% of CFTR amplifier+VX-809 (3 uM) with compound at 10 uM and Compound A at 3 uM)”.
In the case of `Cc1c(-c2cc(C(=O)O)c3c(OC4CCCC(c5ccccc5)C4)ccc(C)c3n2)oc2ccccc12` (stereo not drawn) [Compound 77, 8-Methyl-2-(3-methyl-1-benzofuran-2-yl)-5-[(3-phenylcyclohexyl)oxy]quinoline-4-carboxylic acid], the Activity is reported as “++ (activity>50% of CFTR amplifier+VX-809 (3 uM) with compound at 10 uM and Compound A at 3 uM)”.
For `Cc1c(-c2cc(C(=O)O)c3c(OC4CCCCC4)ccc(C)c3n2)oc2ccccc12` [Compound 79, 5-(Cyclohexyloxy)-8-methyl-2-(3-methyl-1-benzofuran-2-yl)quinoline-4-carboxylic acid], the Activity was “++ (activity>50% of CFTR amplifier+VX-809 (3 uM) with compound at 10 uM and Compound A at 3 uM)”.
For `Cc1c(-c2cc(C(=O)O)c3c(OC(=O)Nc4ccccc4)ccc(C)c3n2)oc2ccccc12` [Compound 81, 8-Methyl-2-(3-methyl-1-benzofuran-2-yl)-5-[(phenylcarbamoyl)oxy]quinoline-4-carboxylic Acid], the Activity was “+ (activity<50% of an CFTR amplifier (Compound A)+VX-809 (3 uM) with compound at 10 uM and Compound A at 3 uM)”.
In the case of `Cc1ccc(OCc2ccccc2)c2c(C(=O)O)cc(-c3snc4ccccc34)nc12` [Compound 86, 2-(2,1-Benzothiazol-3-yl)-5-(benzyloxy)-8-methylquinoline-4-carboxylic Acid], the Activity is reported as “++ (activity>50% of CFTR amplifier+VX-809 (3 uM) with compound at 10 uM and Compound A at 3 uM)”.
With `Cc1ccc(OCc2ccccc2)c2c(C(=O)O)cc(-c3csc4ccccc34)nc12` [Compound 95, 2-(1-Benzothiophen-3-yl)-5-(benzyloxy)-8-methylquinoline-4-carboxylic acid] the Activity was “++ (activity>50% of CFTR amplifier+VX-809 (3 uM) with compound at 10 uM and Compound A at 3 uM)”.
With `Cc1c(-c2cc(C(=O)O)c3c(OC4CCC(c5nnco5)CC4)ccc(C)c3n2)oc2ccccc12` (stereo not drawn) [Compound 97, 8-Methyl-2-(3-methyl-1-benzofuran-2-yl)-5-[[4-(1,3,4-oxadiazol-2-yl)cyclohexyl]oxy]quinoline-4-carboxylic acid] the Activity was “++ (activity>50% of CFTR amplifier+VX-809 (3 uM) with compound at 10 uM and Compound A at 3 uM)”.
With `Cc1c(-c2nc(C(=O)O)c3c(OCc4ccccc4)ccc(C)c3n2)oc2ccccc12` [Compound 101, 5-(Benzyloxy)-8-methyl-2-(3-methyl-1-benzofuran-2-yl)quinazoline-4-carboxylic Acid] the Activity was “++ (activity>50% of CFTR amplifier+VX-809 (3 uM) with compound at 10 uM and Compound A at 3 uM)”.
With `Cc1c(-c2cc(C(=O)O)c3cc(Cl)cc(C)c3n2)sc2ccccc12` [Compound 104, 6-Chloro-8-methyl-2-(3-methyl-1-benzothiophen-2-yl)quinoline-4-carboxylic acid] the Activity was “++ (activity>50% of CFTR amplifier+VX-809 (3 uM) with compound at 10 uM and Compound A at 3 uM)”.
With `Cc1cc(C)c2nc(-c3oc4ccccc4c3C)c(C(=O)O)cc2c1` [Compound 105, 6,8-Dimethyl-2-(3-methyl-1-benzofuran-2-yl)quinoline-3-carboxylic Acid] the Activity was “+ (activity<50% of an CFTR amplifier (Compound A)+VX-809 (3 uM) with compound at 10 uM and Compound A at 3 uM)”.
In the case of `Cc1oc2ccccc2c1-c1cc(C(=O)O)c2c(OCc3ccccc3)ccc(C3CC3)c2n1` [Compound 106, 5-(Benzyloxy)-8-cyclopropyl-2-(2-methyl-1-benzofuran-3-yl)quinoline-4-carboxylic acid], the Activity is reported as “++ (activity>50% of CFTR amplifier+VX-809 (3 uM) with compound at 10 uM and Compound A at 3 uM)”.
